This note sets out measurements from US7807712B2, “Oxy substituted chalcones as antihyperglycemic and antidyslipidemic agents” (priority 2004, dated 2010).

Like-named read-outs stand apart in the source and are kept apart here.

Assay [1] deals with streptozotocin-induced diabetic rats. Briefly: Sucrose-challenged streptozotocin-induced diabetic rats (STZ-S), antihyperglycemic activity. The assay is classed as in vivo, rat (Sprague Dawley). The settings on record: for activity in STZ model: summary statement. The method, then: Male albino rats of Sprague Dawley strain of body weight […] were selected for this study. Streptozotocin (Sigma, USA) was dissolved in 100 mM citrate buffer pH 4.5 and calculated amount of the fresh solution was injected to overnight fasted rats (45 mg/kg) intraperitoneally. Blood glucose level was checked 48 h later by glucostrips and animals showing blood glucose values between 144 to 270 mg/dl (8 to 15 mM) were included in the experiment and termed diabetic. The diabetic animals were divided into groups consisting of five to six animals in each group. Animals of experimental groups were administered suspension of the desired test samples orally (made in 1.0% gum acacia) at a dose of 100-mg/kg-body weight. Animals of control group were given an equal amount of 1.0% gum acacia. A sucrose load of 2.5-g/kg body weight was given after 30 minutes of compound administration. After 30 minutes of post sucrose load blood glucose level was again checked by glucostrips at 30, 60, 90, 120, 180, 240, 300 min and at 24 h, respectively. Animals not found diabetic after 24 hours post treatment of the test sample were not considered and omitted from the calculations and termed as non-responders. […] Food but not water was withheld from the cages during the experimentation. Comparing the AUC of experimental and control groups determined the percent antihyperglycemic activity. Statistical comparison between groups was made by Student's ‘t’ test.

Assay [2] relates to triton WR-1339 induced hyperlipidemic rats. Briefly: Triton model, antidyslipidemic activity. The settings on record: Rattus norvegicus, 100 mg/kg oral. The assay is classed as in vivo, rat (Charles foster). The method, then: Male Charles foster rats weighing 200-225 g were divided into control, hyperlipidemic and hyperlipidemic plus drug treated groups containing six animals in each group. Hyperlipidemia was induced by administration of triton WR-1339 (200 mg/kg i.p.). All animals were maintained on a special pellet diet and water ad libitum. Compounds and standard drug were macerated with 0.2% aqueous gum acacia suspension. The suspension was fed orally at the dose of 100 mg/kg simultaneously with triton in drug treated group. The animals of control group received the same amount of gum acacia by similar route of administration. At the end of the experiment, after 18 h, blood was withdrawn from retro orbital plexus and plasma was used for the assay of total cholesterol, phospholipid and triglycerides.
Cholesterol was estimated using the kit provided by Roche Diagnostics. Cholesterol esters are enzymatically hydrolyzed by cholesterol esterase (CE) to cholesterol and free fatty acids. Free cholesterol, including that originally present, is then oxidized by cholesterol oxidase (CO) to cholest-4-en-3-one and hydrogen peroxide. The hydrogen peroxide combines with hydroxy benzoic acid (HBA) and 4-aminoantipyrine (4AAA) in the presence of peroxidase (POD) to form a chromophore (quinoneimine dye), which may be quantitated at 500-505 nm. The intensity of red colour formed is directly proportional to the concentration of total cholesterol in the specimen and measured spectrophotometrically (Searcy, C. L. Diagnostic Biochemistry, 1969, McGraw Hill, New York; Ellefson, R. D.; Caraway, W. T. Fundamentals of clinical chemistry, 1976, Ed Tietz N W, 506-515.)
Triglycerides were estimated using the kit provided by Roche Diagnostics. Lipoprotein lipase hydrolyses triglycerides to yield glycerol and fatty acids. Glycerol kinase converts glycerol to glycerol-3-phosphate, which is oxidized by glycerol phosphate oxidase to dihydroxy acetone phosphate and hydrogen peroxide. In the presence of peroxidase, hydrogen peroxide oxidatively couples with 4-aminoantipyrine and 4-chloro phenol to produce red quinonimine dye. The intensity of red colour formed is directly proportional to the concentration of triglycerides in the specimen and is measured by photometrically (Wahlefeld, A. W.; Bergmeyer, H. U. Ed. Methods of enzymatic analysis, 2nd English edition, New York, N.Y., Academic press inc, 1831-1840.).
Serum (0.2 mL) and perchloric acid (1.0 mL) was digested at 180° C. for 1-1.5 h till the solution became colorless. The liberated inorganic phosphate (Pi) was measured by the method of Fiske and Subbarow (Fiske, C. H.; Subbarow, V. J. Biol. Chem. 1925, 66, 375.). 1 mL of 2.5% ammonium molybdate (prepared in 5 N sulphuric acid) and 0.5 mL reducing agent (4-amino naphthol sulphonic acid, 0.2%), sodium metabisulphite (2.4% w/v in distilled water) was added to the above tubes and mixed well. The reaction mixture was […] with 2.5 mL of triple distilled water and kept at 60° C. in water bath for 20 min. For standard, an appropriate amount of potassium dihydrogen phosphate dissolved in triple distilled water containing 2-10 μg phosphorus (Pi) was run simultaneously with the experiment tubes. The optical density of the blue colour was recorded at 620 nm against reagent blank. The values of Pi were converted into phospholipid by multiplying with 25 (a constant calibrated from Pi value of lecithin).

The mark [3] stands for this setting: 100 mg/kg oral, sucrose load 2.5 g/kg, AUC vs control.
[4] abbreviates: plasma phospholipid after 18 h, read-out: % Fall in lipid levels (Triton model) PL.
[5] abbreviates: plasma total cholesterol after 18 h, read-out: % Fall in lipid levels (Triton model) TC.
The mark [6] stands for this setting: plasma triglycerides after 18 h, read-out: % Fall in lipid levels (Triton model) TG.

As for `O=C1NC(=O)/C(=C\c2ccc(OCCCCCOc3cccc(C(=O)/C=C/c4ccc5c(c4)OCO5)c3)cc2)S1` [Compound 46, 3,4-Methylenedioxy-3′-{5-[4-(thiazolidin-2,4-dione-5-ylidinemethyl)-phenoxy]-pentyloxy}-chalcone], in assay [1] (100 mg/kg oral, sucrose load 2.5 g/kg, AUC vs control, 5 h), the “% Fall in blood glucose levels STZ-S 5 h” value was determined as 11.8%. Further, the “% Fall in blood glucose levels STZ-S 24 h” value in assay [1] (setting [3]) was 7.18%. For the same compound, the inhibition in vivo at 100 mg/kg in assay [2] (setting [4]) is 20%; in assay [2] (setting [5]), 13%; in assay [2] (setting [6]) it was 20%.
For the compound `COc1ccc(/C=C/C(=O)c2ccc(OCC(O)CN3CCN(c4ccccc4)CC3)cc2)cc1OC` (stereo not drawn) [Compound 18, 3,4-Dimethoxy-4′-[2-hydroxy-3-(4-phenylpiperazin-1-yl)-propoxy]-chalcone], in assay [1] (setting [3]), the “% Fall in blood glucose levels STZ-S 24 h” value came out at 20.3%. For the same compound, in assay [1], the “activity in STZ model” value is “significant results”. Further, the inhibition in vivo at 100 mg/kg stood at 8% in assay [2] (setting [4]), 20% in assay [2] (setting [5]) and 12% in assay [2] (setting [6]).
`CC(C)(C)NCC(O)COc1ccc(C(=O)/C=C/c2ccc3c(c2)OCO3)cc1` (stereo not drawn) [Compound 34, 4′-[^3-tert-Butylamino-2-hydroxy-propoxy]-3,4-methylenedioxy-chalcone]: the “% Fall in blood glucose levels STZ-S 24 h” value in assay [1] (setting [3]) came out at 23.0%. The “activity in STZ model” value in assay [1] was “significant results”. Moreover, the inhibition in vivo at 100 mg/kg in assay [2] (setting [4]) came out at 20%; in assay [2] (setting [5]) it was 26%; in assay [2] (setting [6]) it was 18%.
